Results published in patent US6696407B1, “Huntington's disease treatment comprising administering aldose reductase inhibitors to increase striatal CNTF” (The Regents of the University of California, priority 1997, dated 2004).
Entries after “also recorded” stand apart in the source; their conditions may differ. Marks after values point to notes of the source that are not given here.

Key:
Format in all cases: in vivo, rat
[1] = system: CNTF; assay: Sciatic nerve CNTF protein by ELISA; conditions: P<0.05
Procedure: These studies were conducted with the approval of the San Diego Veterans Administration Animal Studies Subcommittee. Female Sprague-Dawley rats (240-300 g; Charles River, San Diego, Calif.) were housed in cages with wire bottoms to reduce contact with urine and feces. Groups were established and fed either a 40% D-galactose diet or a control diet specially formulated by Purina that contained 40% solka floc, a nonnutritive fiber, to balance nutritional intake. All diets contained 100% of the micronutrients required by rats and, with water, were available ad libitum. Each of these diet groups contained animals that were treated with the ARI, Ponalrestat (50 mg/kg), daily by oral gavage. After two months, rats were anesthetized by intraperitoneal injection (1 ml/kg ip) of pentobarbital sodium (12.5 mg/ml) and diazepam (1.25 mg/ml) in bacteriostatic saline. Under deep anesthesia, motor nerve conduction velocity (MNCV) was measured in the left hindlimb prior to removal of the sciatic nerve. […]
CNTF protein was determined with an ELISA that utilizes a monoclonal capture antibody which recognizes a non-C-terminal epitope on both rat and human CNTF (Regeneron, Tarrytown, N.Y.). […] The reaction was stopped with 0.5 N H2SO4 and the plates read at two wavelengths (490 nm and 650 nm).

[2] = system: aldose reductase; assay: Sciatic nerve polyol content by gas chromatography
Procedure: (§1) These studies were conducted with the approval of the San Diego Veterans Administration Animal Studies Subcommittee. Female Sprague-Dawley rats (240-300 g; Charles River, San Diego, Calif.) were housed in cages with wire bottoms to reduce contact with urine and feces. Groups were established and fed either a 40% D-galactose diet or a control diet specially formulated by Purina that contained 40% solka floc, a nonnutritive fiber, to balance nutritional intake. All diets contained 100% of the micronutrients required by rats and, with water, were available ad libitum. Each of these diet groups contained animals that were treated with the ARI, Ponalrestat (50 mg/kg), daily by oral gavage. After two months, rats were anesthetized by intraperitoneal injection (1 ml/kg ip) of pentobarbital sodium (12.5 mg/ml) and diazepam (1.25 mg/ml) in bacteriostatic saline. Under deep anesthesia, motor nerve conduction velocity (MNCV) was measured in the left hindlimb prior to removal of the sciatic nerve. The proximal portion was processed for subsequent light microscopic examination and the distal portion used for gas chromatographic analysis of nerve polyols. The contralateral sciatic nerve was removed and used for assay of CNTF-like neurotrophic activity and either Northern blot or ELISA analysis of CNTF mRNA or protein, respectively.
For determination of water content and dry weight, distal segments of sciatic nerve were lightly blotted, weighed prior to freeze-drying and reweighed. Nerve polyols were measured by gas chromatography with α-methylmannoside as an internal standard (Mizisin et al., (1993) J. Neurol. Sci. 116:67-72) using a Hewlett Packard 5890 gas chromatograph (Hewlett Packard, Avondale, Pa.) fitted with a flame ionization detector and a 25 m×0.2 mm capillary column (Hewlett Packard Ultra 1). Nerve water and polyol contents are expressed as mg and nmol per mg nerve dry weight, respectively.
Data are presented as mean ±SD (N=8 to 10) and were analyzed with a one way ANOVA after which multiple comparisons were made with the Student-Newman-Keuls test. Mean dulcitol levels were compared with an unpaired, two-tailed t test. Control and animals received a diet containing 0% D-galactose and galactose animals a diet containing 40% D-galactose for two months.

[3] = system: myelinated fibers; assay: Axonal size-frequency distribution of myelinated fibers in sciatic nerve; conditions: galactose-fed rats
Procedure: as §1
For light microscopic examination, proximal portions of sciatic nerve were fixed in 2.5% phosphate-buffered glutaraldehyde (490 mosmol/kg H2O). Tissue was then postfixed in 1% aqueous osmium tetroxide for 3 to 4 hours before dehydration using a series of graded alcohols and propylene oxide. […]
In each animal, computer-assisted analysis of the axonal size-frequency distributions of myelinated fibers was performed on a single thick section sampled from the tibial fascicle midway between the sciatic notch and popliteal fossa as described in detail previously by Forcier et al. (1991) J. Neuropathol. […] Briefly, video images (Cohu, San Diego, Calif.) of the tibial fascicle obtained with an Olympus light microscope were analyzed using a VAXstation II/GPX processor (Digital Equipment Corp., Boston, Mass.) with data translation imaging hardware (DT 2651, Data Translation, Marlboro, Mass.) for digitization of single video frames and an image processing board (DT2658) for mathematical operations. […]
Two months of galactose feeding was associated with a shift in the axonal size-frequency distribution of myelinated fibers towards those with smaller diameter axons (FIG. 4). […] Data are presented as the mean ±SD (N=8 to 10 per group) and were analyzed with a one way ANOVA after which multiple comparisons were made with the Student-Newman-Keuls test. […]

[4] = system: CNTF; assay: Striatal CNTF levels by ELISA; conditions: adult rats, oral 50 mg/kg/day for two months
Procedure: CNTF protein was determined with an ELISA that utilizes a monoclonal capture antibody which recognizes a non-C-terminal epitope on both rat and human CNTF (Regeneron, Tarrytown, N.Y.). The captured CNTF was recognized by a polyclonal rabbit anti-rCNTF reporter antibody. An alkaline phosphatase-tagged goat anti-rabbit IgG was used to generate the signal. In practice, 96-well Immulon plates were coated with capture antibody overnight, then blocked and washed. After overnight incubation of standards and samples, plates were washed and reporter antibody added. Following final washes, the reaction was developed using the GIBCO BRL ELISA amplification system substrate and amplifier. The reaction was stopped with 0.5 N H2SO4 and the plates read at two wavelengths (490 nm and 650 nm).
ARIs Toirestat and Ponalrestat were orally administered to adult rats at a dose of 50 mg/kg/day for two months as described in Example 1 and in Mizisin et al (1997) Diabetes 46: 647-652. For each rat, the left and right striatum were dissected and combined for homogenization in phosphate buffered saline. CNTF levels in extract preparations were then measured by ELISA, as described in Example 1. Four rats served as controls, and five rats each received Tolrestat and Ponalrestat. Five ELISA assays were run for each rat and one mean value derived for each rat.

[5] = sciatic nerve, 40% D-galactose diet rats, Ponalrestat 50 mg/kg daily oral, two months

O=C(O)Cc1nn(Cc2ccc(Br)cc2F)c(=O)c2ccccc12 [Ponalrestat, 3-(4-bromo-2-fluorobenzyl)-4-oxo-3H-phthalazin-1-ylacetic acid]
Increase of CNTF detected by ELISA relative to untreated control rats ([1]; control animals): 50%
Increase of CNTF detected by ELISA relative to untreated control rats ([1]; galactose-fed animals): 50%
Dulcitol accumulation (in words) ([2]; galactose-fed rats): attenuated
Nerve myo-inositol content (in words) ([2]; galactose-fed rats): restored
Dulcitol [2, 5]: 12.2 ± 3.8 nmol/mg dry wt
myo-Inositol [2, 5]: 9.4 ± 1.9^a nmol/mg dry wt
myo-Inositol ([2]; sciatic nerve, control diet rats, Ponalrestat 50 mg/kg daily oral, two months): 12.3 ± 1.5^b nmol/mg dry wt
Relative number, Medium myelinated axons ([3]; diameter >3 μm but <7 μm, Ponalrestat 50 mg/kg daily oral, two months): 45.2 ± 5.0^a %
Relative number, Small myelinated axons ([3]; diameter ≦3 μm, Ponalrestat 50 mg/kg daily oral, two months): 17.7 ± 4.9%
Relative number, Large myelinated axons ([3]; diameter ≧7 μm, Ponalrestat 50 mg/kg daily oral, two months): 37.1 ± 6.7^a %
Changes in axonal caliber [3]: prevented
Increase in striatal CNTF activity level versus control group [4]: significantly increased; also recorded: approximately three-fold
